Laboratory results as given in article PMC9428149, “Tackling recalcitrant Pseudomonas aeruginosa infections in critical illness via anti-virulence monotherapy” (Nature Communications, 2022).
In brackets after ≈: the same amount, converted by molar mass. Read-outs that look alike come from different tables or passages of the source.

What was measured:
[1] = tested on: mvfR mutant constitutively expressing the pqsABCDE operon; assay type: cell-based; settings: Pseudomonas aeruginosa, control about 100, single replicates (Figure 4a)
[2] = tested on: PA14 isogenic mutant ΔmvfR AT/P cells; assay: AT/P cell formation in ΔmvfR mutant (off-target); settings: Pseudomonas aeruginosa, PA14, 24 h, read-out: AT/P cell formation, ΔmvfR + compound; PA14 about 100; single replicates (Figure 4b)
Description: Cells were grown in the presence of 10 μg mL^−1 meropenem, with or without 10 µM of the compounds for 24 h. Values were normalized to cells grown for 4 h in the absence of antibiotics and compounds. The ∆mvfR cells grown with antibiotics and vehicles were considered control, and the percentage values were calculated compared to control. c Biofilm formation of mutant ∆mvfR cells with or without compound. […] The number of biological replicates for each compound and strain is depicted in the graph. The error bars denote ±SEM.
The AT/P cell formation assay was performed according to the method previously described in Starkey et al., 2014 (persister cell assay). The over-day culture was incubated at 37 °C with shaking at 200 rpm until the culture OD600nm was 3.0. The culture was then diluted at 1:100 and grown in the same conditions for 4 h. After 4 h, 200 µL were collected, and serial dilutions were plated on LB agar plates for CFU quantification (as normalizers). The remainder of the culture was treated with meropenem to a final concentration of 100 × MIC (Minimum Inhibitory Concentration; 10 mg L^−1) and compounds at a final concentration of 10 µM. After 24 h, culture aliquots were 10-fold serially diluted in LB broth and plated on LB agar for CFU quantification. The AT/P fraction was determined as the normalizers (pre-antibiotic) ratio divided by the AT/P fraction (24 h post-antibiotic)[22].

[3] = tested on: PA14 AT/P cells; assay: AT/P cells formation assay in PA14; assay type: cell-based, Pseudomonas aeruginosa; settings: Pseudomonas aeruginosa, PA14, 24 h, read-out: inhibition of AT/P cells formation
[4] = Solubility in iPBS pH 7.4 by HPLC; assay type: physicochemical; settings: isotonic phosphate buffer (iPBS), aqueous with cosolvent or surfactant or cyclodextrin, kinetic from dmso stock; iPBS pH 7.4, HPLC; read-out: Solubility (M) in PBS
Summary of the method: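 Compounds from 10 mM DMSO stock shaken 4 h at room temperature in iPBS pH 7.4 (10 mM PBS, 2.7 mM KCl, 140 mM NaCl, 0.05% Tween), then filtered. Concentration measured by HPLC-UV against a known standard solution; solubility given as ratio of compound in test solution to standard.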

[5] = biological target: T1, MvfR protein (MvfRC87) (Pseudomonas aeruginosa, UniProt Q9I4X0); assay type: binding; settings: SPR
T1 construct: The MvfRC87 protein purified as in Xiao et. al., 2006; made in house
Summary of the method: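 MvfRC87 amine-coupled to a CM7 chip (3000–5000 RU) and binding measured by SPR. Double-reference-corrected responses 5 s before end of association plotted against concentration, for inhibitor alone and with native ligand PQS, compared with responses calculated for different binding sites.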

[6] = tested on: pqsA promoter (PA14 PpqsA-GFPASV); assay: pqsA-GFP reporter expression; assay type: cell-based, Pseudomonas aeruginosa; settings: Pseudomonas aeruginosa; for activity at 50 µM: PA14, read-out: % Production pqsA-GFP; for IC50: PA14, read-out: IC50 pqsA-GFP expression, PA14, 13 concentrations
[7] = tested on: 16 MDR P. aeruginosa clinical isolates; assay: Pyocyanin production in MDR clinical isolates; settings: Pseudomonas aeruginosa, 18 h, Control about 100, replicates
[8] = tested on: ΔmvfR biofilm; assay: Biofilm formation of ΔmvfR mutant (off-target); settings: Pseudomonas aeruginosa, PA14, 24 h, read-out: Biofilm formation, ΔmvfR + compound; PA14 about 100; single replicates (Figure 4c)
Description: Biofilm was grown in the 96-well microtiter plate at 37 °C for 24 h containing M63 minimal media in the presence of 10 µM of the compounds or vehicle. The biofilm grown with the vehicle was considered as a control. The percentage value was calculated in comparison to the PA14 control. a–c Data represent at least n = 3, each dot on the graph represents one biological replicate. The number of biological replicates for each compound and strain is depicted in the graph. The error bars denote ±SEM.
The overnight grown starter culture was diluted 1:1000 in 5 mL LB media in a glass tube and was incubated at 37 °C and 200 rpm in an incubator shaker until the culture reached an OD600nm 3.0. The culture was then diluted at 1:100 in M63 minimal media supplemented with 0.2% glucose, 0.5% Casamino Acids, and 1 mM MgSO4. Initiation of the Biofilm formation was performed in the 96 well plates; 200 µL of diluted culture was added in the wells with (10 µM) or without compounds. The cultures were allowed to grow at 37 °C in static conditions for 24 hours. Thereafter, planktonic culture was removed from the wells, and wells were washed three times with distilled water (DW). Biofilm was stained with 0.1% crystal violet and incubated for 15 min at room temperature (RT). Access dye was removed from the wells and washed off three times with DW, and 200 µL ethanol: acetone (80:20) was added to the wells. The plate was incubated for 30 min at RT, and the OD was measured by spectrophotometry at 570 nm in the infinite F200 plate reader using the Magellan software (Tecan, Switzerland). Percent biofilm formation was calculated in comparison to PA14 culture that was grown in the absence of compounds.

[9] = tested on: pyocyanin production in PA14; assay: Pyocyanin production assay; settings: Pseudomonas aeruginosa; for activity at 50 µM: PA14, 18 h, read-out: % Production Pyocyanin; for IC50: PA14, read-out: IC50 pyocyanin production
Description: The over-day culture was grown to OD600nm 1.5., diluted again at 1:10,000 in 5 mL LB and incubated with 10 μM of the test compound or the vehicle control for 18 hours at 37 °C and 200 rpm in an incubator shaker. After 18 h, 1 mL of culture was centrifuged for 2 min at 20.000 x g. The supernatant was transferred to a new tube, 200 μL of this were loaded in a flat-bottom 96-well plate, and the pyocyanin levels were quantified by measuring at OD690nm in the infinite F200 plate reader using the Magellan software (Tecan, Switzerland). […] The percent of pyocyanin was calculated compared to the PA14 culture grown in the absence of compounds.
To determine the IC50 of pyocyanin production, we followed the same process as above. […] Using GraphPad Prism Software, the IC50 curve was plotted against percent inhibition of pyocyanin production at each concentration using PA14 in the absence of compounds as a control.

[10] = tested on: MvfR-regulated small molecules in PA14; assay: Production of HAQs, 2-AA, DHQ and AA in PA14 cultures (LC-MS); settings: Pseudomonas aeruginosa
Description: The HAQs HHQ, PQS, HQNO, and non-HAQs: 2-AA and DHQ produced by PA14 cells were quantified in the presence of NAMs. The overnight grown starter culture was diluted 1:100 in 5 mL LB media in a glass tube and was allowed to grow in the presence (50 µM) or absence of compound at 37 °C and 200 rpm in an incubator shaker until OD600 was 3. Bacterial cultures were subsequently mixed 1:1 (400 μL: 400 μL) with 100% methanol containing 20 ppm (20 μg mL^−1) of tetradeutero-PQS (PQS-D4) and 10 ppm of tetradeutero-HHQ (HHQ-D4) in a 1.5 mL Eppendorf tube. The mixture was vortexed for 5 seconds and spun down for 5 minutes at 12,000 x g. A 700 μL aliquot of the supernatant was removed and stored in glass vials at −20 °C until further liquid chromatography-mass spectrophotometry (LC/MS) analysis as previously described in Lepine et al., 2003[66]. LC/MC analysis was performed using a Micromass Quattro II triple quadrupole mass spectrometer (Micromass Canada, Pointe-Claire, Canada) in positive electrospray ionization mode, interfaced to an HP1100 HPLC equipped with a 4.5 × 150 mm reverse-phase C8 column.
GraphPad Prism 9.2.0 software was used to plot the IC50 curve against the percent inhibition of these small molecules’ production at each concentration.

[11] = read-out: HQNO, ΔmvfR-pqsABCD strain
[12] = read-out: Pyocyanin production relative to Control, clinical isolate LGR-4325
[13] = read-out: Pyocyanin production relative to Control, clinical isolate LGR-4326
[14] = read-out: Pyocyanin production relative to Control, clinical isolate LGR-4327
[15] = read-out: Pyocyanin production relative to Control, clinical isolate LGR-4328
[16] = read-out: Pyocyanin production relative to Control, clinical isolate LGR-4330
[17] = read-out: Pyocyanin production relative to Control, clinical isolate LGR-4331 (first section, r117)
[18] = read-out: Pyocyanin production relative to Control, clinical isolate LGR-4331 (second section, r140)
[19] = read-out: Pyocyanin production relative to Control, clinical isolate LGR-4333
[20] = read-out: Pyocyanin production relative to Control, clinical isolate LGR-4343
[21] = read-out: Pyocyanin production relative to Control, clinical isolate LGR-4344
[22] = read-out: Pyocyanin production relative to Control, clinical isolate LGR-4348
[23] = read-out: Pyocyanin production relative to Control, clinical isolate LGR-4356
[24] = read-out: Pyocyanin production relative to Control, clinical isolate LGR-4362
[25] = read-out: Pyocyanin production relative to Control, clinical isolate LGR-4363
[26] = read-out: Pyocyanin production relative to Control, clinical isolate LGR-4364 (first section, r326)
[27] = read-out: Pyocyanin production relative to Control, clinical isolate LGR-4364 (second section, r349)
[28] = PA14, read-out: % Production 2-AA
[29] = PA14, read-out: % Production AA
[30] = PA14, read-out: % Production DHQ
[31] = PA14, read-out: % Production HHQ
[32] = PA14, read-out: % Production HQNO
[33] = PA14, read-out: % Production PQS
[34] = PA14, read-out: HHQ production inhibition
[35] = PA14, read-out: HQNO production inhibition
[36] = PA14, read-out: PQS production inhibition
[37] = PA14, read-out: inhibition of 2-AA production
[38] = PA14, read-out: inhibition of DHQ production
[39] = read-out: DHQ, ΔmvfR-pqsABCD strain
[40] = read-out: HHQ, ΔmvfR-pqsABCD strain
[41] = read-out: PQS, ΔmvfR-pqsABCD strain

T1 sequence (Q9I4X0 87-332): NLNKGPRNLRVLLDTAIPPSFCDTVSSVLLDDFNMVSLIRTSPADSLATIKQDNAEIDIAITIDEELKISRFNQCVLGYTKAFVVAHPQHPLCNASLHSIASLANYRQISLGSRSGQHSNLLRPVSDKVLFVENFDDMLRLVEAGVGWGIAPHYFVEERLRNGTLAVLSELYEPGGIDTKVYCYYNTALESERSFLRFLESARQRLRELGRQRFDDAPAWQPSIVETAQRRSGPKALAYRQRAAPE

Structure (SMILES): N#Cc1ccc(NC(=O)CC(=O)Nc2ccc(Cl)cc2)cc1 [D41]
- activity at 50 µM [1, 11]: 81.9%
- activity at 10 µM [2]: 43.4%
- inhibition at 10 µM [3]: ≥ 76%
- solubility at 4 h [4]: 1.3e-05 M (≈ 4.08 µg/mL)
- Response Unit (RU) ([5]; Concentration 1.00E-05 M): 28.8 RU
- Response Unit (RU) ([5]; Concentration 1.00E-06 M): 22.7 RU
- Response Unit (RU) ([5]; Concentration 1.00E-07 M): 10.6 RU
- Response Unit (RU) ([5]; Concentration 1.00E-08 M): 2.6 RU
- Response Unit (RU) ([5]; Concentration 3.16E-06 M): 26.5 RU
- Response Unit (RU) ([5]; Concentration 3.16E-07 M): 16.9 RU
- Response Unit (RU) ([5]; Concentration 3.16E-08 M): 5.4 RU
- activity at 50 µM [6]: 8%
- IC50 [6]: 1090 nM
- activity at 10 µM [7, 12]: 15.5%
- activity at 10 µM [7, 13]: 14.8%
- activity at 10 µM [7, 14]: 34.4%
- activity at 10 µM [7, 15]: 11.9%
- activity at 10 µM [7, 16]: 13.4%
- activity at 10 µM [7, 17]: 17.4%
- activity at 10 µM [7, 18]: 10.7%
- activity at 10 µM [7, 19]: 18.8%
- activity at 10 µM [7, 20]: 17.4%
- activity at 10 µM [7, 21]: 21.8%
- activity at 10 µM [7, 22]: 17.7%
- activity at 10 µM [7, 23]: 18.8%
- activity at 10 µM [7, 24]: 35.7%
- activity at 10 µM [7, 25]: 23.4%
- activity at 10 µM [7, 26]: 19.1%
- activity at 10 µM [7, 27]: 22%
- activity at 10 µM [8]: 25.4%
- activity at 50 µM [9]: 6%
- IC50 [9]: 1800 nM
- activity at 50 µM [10, 28]: 6%
- activity at 50 µM [10, 29]: 739%
- activity at 50 µM [10, 30]: 11%
- activity at 50 µM [10, 31]: 2%
- activity at 50 µM [10, 32]: 15%
- activity at 50 µM [10, 33]: 9%
- inhibition at 50 µM [10, 34]: 89 to 99%
- inhibition at 50 µM [10, 35]: 40 to 92%
- inhibition at 50 µM [10, 36]: 76 to 97%
- inhibition at 50 µM [10, 37]: 82 to 95%
- inhibition at 50 µM [10, 38]: 82 to 96%

Structure (SMILES): N#Cc1ccc(NC(=O)CC(=O)Nc2ccc(C#N)nc2)cc1 [D77]
- activity at 50 µM ([1]; read-out: 2-AA, ΔmvfR-pqsABCD strain): 104%
- activity at 50 µM [1, 39]: 94.5%
- activity at 50 µM [1, 40]: 98%
- activity at 50 µM [1, 11]: 102%
- activity at 50 µM [1, 41]: 90.2%
- activity at 10 µM [2]: 29.3%
- inhibition at 10 µM [3]: ≥ 51%
- solubility at 4 h [4]: 3.9e-05 M (≈ 11.9 µg/mL)
- Response Unit (RU) ([5]; Concentration 1.00E-05 M): 30.9 RU
- Response Unit (RU) ([5]; Concentration 1.00E-06 M): 19.8 RU
- Response Unit (RU) ([5]; Concentration 1.00E-07 M): 5.9 RU
- Response Unit (RU) ([5]; Concentration 1.00E-08 M): 0.7 RU
- Response Unit (RU) ([5]; Concentration 3.16E-06 M): 26.6 RU
- Response Unit (RU) ([5]; Concentration 3.16E-07 M): 11.8 RU
- Response Unit (RU) ([5]; Concentration 3.16E-08 M): 2.2 RU
- activity at 50 µM [6]: 1%
- IC50 [6]: 6400 nM
- activity at 10 µM [7, 12]: 15%
- activity at 10 µM [7, 13]: 12.1%
- activity at 10 µM [7, 14]: 20.6%
- activity at 10 µM [7, 15]: 25.6%
- activity at 10 µM [7, 16]: 35.1%
- activity at 10 µM [7, 17]: 18.8%
- activity at 10 µM [7, 18]: 8.31%
- activity at 10 µM [7, 19]: 11.8%
- activity at 10 µM [7, 20]: 22.6%
- activity at 10 µM [7, 21]: 26.1%
- activity at 10 µM [7, 22]: 19%
- activity at 10 µM [7, 23]: 14.3%
- activity at 10 µM [7, 24]: 39.2%
- activity at 10 µM [7, 25]: 18.5%
- activity at 10 µM [7, 26]: 18.9%
- activity at 10 µM [7, 27]: 16.9%
- activity at 10 µM [8]: 23.6%
- activity at 50 µM [9]: 7%
- IC50 [9]: 4070 nM
- activity at 50 µM [10, 28]: 19%
- activity at 50 µM [10, 29]: 777%
- activity at 50 µM [10, 30]: 20%
- activity at 50 µM [10, 31]: 10%
- activity at 50 µM [10, 32]: 64%
- activity at 50 µM [10, 33]: 24%
- inhibition at 50 µM [10, 34]: 89 to 99%
- inhibition at 50 µM [10, 35]: 40 to 92%
- inhibition at 50 µM [10, 36]: 76 to 97%
- inhibition at 50 µM [10, 37]: 82 to 95%
- inhibition at 50 µM [10, 38]: 82 to 96%

Structure (SMILES): N#Cc1ccc(NC(=O)CC(=O)Nc2ccc(Oc3ccccc3)cc2)cc1 [D57]
- activity at 50 µM [1, 39]: 98.7%
- activity at 50 µM [1, 40]: 92.2%
- activity at 50 µM [1, 11]: 96.6%
- activity at 50 µM [1, 41]: 82.3%
- activity at 10 µM [2]: 32%
- inhibition at 10 µM [3]: ≥ 76%
- solubility at 4 h [4]: 7e-06 M (≈ 2.6 µg/mL)
- Response Unit (RU) ([5]; Concentration 1.00E-05 M): 33.5 RU
- Response Unit (RU) ([5]; Concentration 1.00E-06 M): 18 RU
- Response Unit (RU) ([5]; Concentration 1.00E-07 M): 5.7 RU
- Response Unit (RU) ([5]; Concentration 1.00E-08 M): 1 RU
- Response Unit (RU) ([5]; Concentration 3.16E-06 M): 26.4 RU
- Response Unit (RU) ([5]; Concentration 3.16E-07 M): 10.4 RU
- Response Unit (RU) ([5]; Concentration 3.16E-08 M): 2.9 RU
- activity at 50 µM [6]: 4%
- IC50 [6]: 430 nM
- activity at 10 µM [7, 12]: 11%
- activity at 10 µM [7, 13]: 17.7%
- activity at 10 µM [7, 14]: 18.2%
- activity at 10 µM [7, 15]: 23.1%
- activity at 10 µM [7, 16]: 41.2%
- activity at 10 µM [7, 17]: 24.2%
- activity at 10 µM [7, 18]: 11.3%
- activity at 10 µM [7, 19]: 13.5%
- activity at 10 µM [7, 20]: 20.7%
- activity at 10 µM [7, 21]: 23.5%
- activity at 10 µM [7, 22]: 17.8%
- activity at 10 µM [7, 23]: 11%
- activity at 10 µM [7, 24]: 33.9%
- activity at 10 µM [7, 25]: 20.9%
- activity at 10 µM [7, 26]: 21.8%
- activity at 10 µM [7, 27]: 27.4%
- activity at 10 µM [8]: 23.6%
- activity at 50 µM [9]: 6%
- IC50 [9]: 240 nM
- activity at 50 µM [10, 28]: 38%
- activity at 50 µM [10, 29]: 298%
- activity at 50 µM [10, 30]: 65%
- activity at 50 µM [10, 31]: 58%
- activity at 50 µM [10, 32]: 54%
- activity at 50 µM [10, 33]: 36%
